US7416728B2, “Growth blocking agents” (Kyto Biopharma, Inc., priority 1992, dated 2008)

Key:
[1] = test system: Acute leukemia; settings: drug combined with vitamin B12 depletion (nitrous oxide); acute leukemia/rats; cited from earlier work
[2] = test system: Myelocytic leukemia; settings: drug combined with vitamin B12 depletion (nitrous oxide); myelocytic leukemia/rats; cited from earlier work
[3] = test system: Raji Burkitt lymphoma cells; assay: Cell viability by reduction of tetrazolium dye, three days, with and without methotrexate; assay type: cell-based, human; settings: 100% lysis control = .047
Method: Antibody D2/20 at a range of concentrations is incubated with Raji Burkitt lymphoma cells in microtiter plates for three days with and without chemotherapeutic drugs. Cell viability is measured by reduction of tetrazolium dye. Only viable cells metabolize the dye to an insoluble, colored product which is subsequently solubilized and read in a spectrophotometer.

[4] = test system: Raji Burkitt lymphoma cells; assay: Subcutaneous Raji Burkitt lymphoma in nu/nu mice, tumor size; assay type: in vivo
Method: Nu/nu mice are injected subcutaneously with 1 million Raji Burkitt lymphoma cells. After two weeks, barely palpable nodules are present at the injection site. Measurements are made in three dimensions with a planarimeter and equally sized tumors assigned to experimental groups of 10 mice. […] Therapy is administered once weekly. Controls of antibody and drug alone, as well as vehicle controls, are included. Mice are monitored visually for toxicity, death, and tumor size weekly for 8 weeks, at which time the experiment is terminated, the mice sacrificed, and the tumors removed and weighed.

O=c1[nH]cc(F)c(=O)[nH]1 [Clone 5-FU, 5-fluorouracil]
Therapeutic Results [1]: additive
Therapeutic Results [2]: additive

CN(Cc1cnc2nc(N)nc(N)c2n1)c1ccc(C(=O)N[C@@H](CCC(=O)O)C(=O)O)cc1 [Methotrexate, methotrexate]
cell viability, tetrazolium dye reading ([3]; antibody 0, methotrexate 0.1 micrograms/ml): .993
cell viability, tetrazolium dye reading ([3]; antibody 0, methotrexate 1 micrograms/ml): .798
average of serial tumor measurements converted to weight ([4]; week 1, methotrexate 5 Milligrams/M^2 i.v. once weekly): .07 grams
average of serial tumor measurements converted to weight ([4]; week 1, methotrexate 10 Milligrams/M^2 i.v. once weekly): .05 grams
average of serial tumor measurements converted to weight ([4]; week 1, methotrexate 50 Milligrams/M^2 i.v. once weekly): .04 grams
average of serial tumor measurements converted to weight ([4]; week 2, methotrexate 5 Milligrams/M^2 i.v. once weekly): .14 grams
average of serial tumor measurements converted to weight ([4]; week 2, methotrexate 10 Milligrams/M^2 i.v. once weekly): .12 grams
average of serial tumor measurements converted to weight ([4]; week 2, methotrexate 50 Milligrams/M^2 i.v. once weekly): .10 grams
average of serial tumor measurements converted to weight ([4]; week 3, methotrexate 5 Milligrams/M^2 i.v. once weekly): .43 grams
average of serial tumor measurements converted to weight ([4]; week 3, methotrexate 10 Milligrams/M^2 i.v. once weekly): .30 grams
average of serial tumor measurements converted to weight ([4]; week 3, methotrexate 50 Milligrams/M^2 i.v. once weekly): .25 grams
average of serial tumor measurements converted to weight ([4]; week 4, methotrexate 5 Milligrams/M^2 i.v. once weekly): .70 grams
average of serial tumor measurements converted to weight ([4]; week 4, methotrexate 10 Milligrams/M^2 i.v. once weekly): .53 grams
average of serial tumor measurements converted to weight ([4]; week 4, methotrexate 50 Milligrams/M^2 i.v. once weekly): .41 grams
average of serial tumor measurements converted to weight ([4]; week 5, methotrexate 5 Milligrams/M^2 i.v. once weekly): 1.2 grams
average of serial tumor measurements converted to weight ([4]; week 5, methotrexate 10 Milligrams/M^2 i.v. once weekly): .92 grams
average of serial tumor measurements converted to weight ([4]; week 5, methotrexate 50 Milligrams/M^2 i.v. once weekly): .73 grams
average of serial tumor measurements converted to weight ([4]; week 6, methotrexate 5 Milligrams/M^2 i.v. once weekly): 2.6 grams
average of serial tumor measurements converted to weight ([4]; week 6, methotrexate 10 Milligrams/M^2 i.v. once weekly): 2.1 grams
average of serial tumor measurements converted to weight ([4]; week 6, methotrexate 50 Milligrams/M^2 i.v. once weekly): 1.4 grams
average of serial tumor measurements converted to weight ([4]; week 7, methotrexate 5 Milligrams/M^2 i.v. once weekly): 4.8 grams
average of serial tumor measurements converted to weight ([4]; week 7, methotrexate 10 Milligrams/M^2 i.v. once weekly): 4.8 grams
average of serial tumor measurements converted to weight ([4]; week 7, methotrexate 50 Milligrams/M^2 i.v. once weekly): 2.3 grams
average of serial tumor measurements converted to weight ([4]; week 8, methotrexate 5 Milligrams/M^2 i.v. once weekly): 7.2 grams
average of serial tumor measurements converted to weight ([4]; week 8, methotrexate 10 Milligrams/M^2 i.v. once weekly): 6.9 grams
average of serial tumor measurements converted to weight ([4]; week 8, methotrexate 50 Milligrams/M^2 i.v. once weekly): 3.4 grams
Therapeutic Results [1]: synergistic
Therapeutic Results [2]: synergistic

NC1(C(=O)O)CCCC1 [cycloleucine]
Therapeutic Results [1]: synergistic
Therapeutic Results [2]: additive
